Laboratory results: paper PMC8342458, “GluN2A and GluN2B NMDA receptors use distinct allosteric routes” (Nature Communications, 2021)
Read-outs that look alike come from different tables or passages of the source.

Columns and labels:
[1] = target: T1, GluN1-K178AzF/GluN2A receptors (Rattus norvegicus, UniProt P35439+Q00959); assay: TEVC recordings in Xenopus oocytes, modulator sensitivity before and after UV photocrosslinking; type: cell-based; settings: read-out: Zn2+ IC50
T1 construct: For full-length multimeric membrane-embedded receptors studied in cellulo, as done in the present work; expressed in transfected cells; host or cells: Xenopus laevis oocytes, co-injected with amber suppressor tRNA (Yam) and AzF-RS
Experimental: (§1) The pcDNA3-based expression plasmids for rat GluN1-1a (named GluN1 herein), rat GluN2A, and mouse GluN2B (also known as ε2) subunits, Pfu-based site-directed mutagenesis strategy, and sequencing procedure have been described previously[68],[69]. Incorporation of the unnatural amino acids (UAAs) AzF and BzF into NMDARs was performed using the genetic code expansion methodology as previously described[52],[53],[83]. The plasmid pSVB.Yam carrying the gene encoding the amber suppressor tRNA derived from B. stearothermophilus Tyr-tRNACUA, while the aminoacyl-tRNA synthetases (aaRS) construction for AzF and BzF derived from E. coli TyrRS[84],[85].
(§2) Recombinant NMDARs were expressed in Xenopus laevis oocytes after nuclear injection of 36 nl of a mixture of cDNAs (at 10–30 ng/μl) encoding various GluN1 and GluN2 subunits (ratio 1:1). Oocytes were prepared, injected, incubated, and voltage-clamped as described previously. For UAA incorporation, oocytes were co-injected with 36 nl of a cDNA mixture encoding for of GluN1, GluN2, Yam, and aaRS as follows, unless otherwise indicated in the text: GluN1-K178amber (120 ng/μl), GluN2A (80 ng/µl) or GluN2B (120 ng/μl), Yam (10 ng/μl), AzF-RS (5 ng/μl). After injection, oocytes were incubated at 19 °C in a Barth solution containing (in mM) 88 NaCl, 1 KCl, 0.33 Ca(NO3)2, 0.41 CaCl2, 0.82 MgSO4, 2.4 NaHCO3, 10 HEPES (pH adjusted to 7.6 with NaOH) supplemented with gentamicin ([…]) and the NMDAR glutamate binding site competitive antagonist D-APV (50 μM). AzF and BzF were added to the incubation medium at final concentrations of 1 mM and 2 mM, respectively.
(§3) For all experiments, except those on pH and spermine sensitivity, the standard external solution contained (in mM): 100 NaCl, 0.3 BaCl2, and 5 HEPES (pH adjusted to 7.3 with KOH). […] For the pH and spermine sensitivity experiments, an external solution enriched in HEPES was used to insure proper pH buffering. Unless otherwise mentioned, NMDAR-mediated currents were induced by simultaneously applications of saturating concentrations of glutamate and glycine (100 μM each). Glutamate and glycine dose-response curves (DRC) were performed in the presence of 100 µM glycine and 100 µM glutamate, respectively. Recordings were performed at a holding potential of −60 mV and at room temperature. Data were collected and analyzed using Clampex 10.5 and Clampfit 10.5 (Molecular Devices), respectively, and fitted using KaleidaGraph 4.0 (Synergy software).
(§4) EC50 and nH were fitted as free parameters. […] For proton DRC, corrections for small shifts in the reference potential of bath electrodes and analysis of the data were performed as previously described. Spermine experiments were performed and analyzed as previously described. In brief, spermine sensitivity was assessed at pH 6.5 and at a holding potential of −30 mV to maximize the spermine induced potentiation. […] EC50, a and nH were set as free parameters. MK-801 is an NMDAR open channel blocker with slow reversibility and, consequently, the rate at which MK-801 inhibits NMDAR responses depends on the level of channel activity, that is, channel open probability (Po). Based on this principle, MK-801 is classically used to estimate the level of NMDAR channel activity in macroscopic whole-cell recordings[36],[47],[56],[86],[87]. Note, however, that MK- 801 inhibition kinetics can index relative, not absolute, Po. MK-801 solutions (10 nM for GluN2A-containing receptors and 50 nM for GluN2B-containing receptors) were prepared by dilution of a stock solution (50 mM) into the agonist containing solutions. MK-801 time constants of inhibition (τon) were obtained by fitting currents with a single-exponential component to a time window corresponding to 10–90% of maximum inhibition. On-rate (kon) constants were then calculated assuming a pseudo first-order reaction scheme: kon = 1 / ([MK-801]*τon).

[2] = target: T2, GluN1-K178AzF/GluN2A receptors (Rattus norvegicus, UniProt P35439+Q00959, K178F); assay: as above; type: cell-based; settings: for Izn/Io 1 nM: 1 nM zinc; for Izn/Io 10 nM: 10 nM zinc; for Izn/Io 1000 nM: 1000 nM zinc
T2 construct: For full-length multimeric membrane-embedded receptors studied in cellulo, as done in the present work; expressed in transfected cells; host or cells: Xenopus laevis oocytes, co-injected with amber suppressor tRNA (Yam) and AzF-RS
Experimental: as §1, §2, §3, §4

[3] = target: T3, GluN1-N521C-L777C/GluN2A-E516C-L780C (CC/CC) receptors (Rattus norvegicus, UniProt P35439+Q00959, E516C/L777C/L780C/N521C); assay: TEVC recordings in Xenopus oocytes, zinc sensitivity; type: cell-based
T3 construct: For full-length multimeric membrane-embedded receptors studied in cellulo, as done in the present work; expressed in transfected cells; host or cells: Xenopus laevis oocytes
Experimental: as §1, §2, §3, §4

[4] = target: T4, GluN1-L777C/GluN2B-E517C-L781C receptors (UniProt P35439+Q01097, E517C/L777C/L781C/N521C); assay: TEVC recordings in Xenopus oocytes, zinc and ifenprodil inhibition dose-response; type: cell-based, rat (GluN1), mouse (GluN2B); settings: read-out: Zn2+ IC50
T4 construct: For full-length multimeric membrane-embedded receptors studied in cellulo, as done in the present work; expressed in transfected cells; host or cells: Xenopus laevis oocytes
Experimental: as §1, §2, §3, §4

[5] = target: T5, GluN1/GluN2B-N218C receptors (UniProt P35439+Q01097, N218C); assay: as above; type: cell-based, rat (GluN1), mouse (GluN2B)
T5 construct: For full-length multimeric membrane-embedded receptors studied in cellulo, as done in the present work; expressed in transfected cells; host or cells: Xenopus laevis oocytes
Experimental: as §1, §2, §3, §4

[6] = target: T6, GluN1-N512C-L777C/GluN2B-E517C-L781C receptors (UniProt P35439+Q01097, E517C/L777C/L781C/N521C); assay: as above; type: cell-based, rat (GluN1), mouse (GluN2B)
T6 construct: For full-length multimeric membrane-embedded receptors studied in cellulo, as done in the present work; expressed in transfected cells; host or cells: Xenopus laevis oocytes
Experimental: as §1, §2, §3, §4

T2 sequence (Q00959 23-1464, other chains not shown): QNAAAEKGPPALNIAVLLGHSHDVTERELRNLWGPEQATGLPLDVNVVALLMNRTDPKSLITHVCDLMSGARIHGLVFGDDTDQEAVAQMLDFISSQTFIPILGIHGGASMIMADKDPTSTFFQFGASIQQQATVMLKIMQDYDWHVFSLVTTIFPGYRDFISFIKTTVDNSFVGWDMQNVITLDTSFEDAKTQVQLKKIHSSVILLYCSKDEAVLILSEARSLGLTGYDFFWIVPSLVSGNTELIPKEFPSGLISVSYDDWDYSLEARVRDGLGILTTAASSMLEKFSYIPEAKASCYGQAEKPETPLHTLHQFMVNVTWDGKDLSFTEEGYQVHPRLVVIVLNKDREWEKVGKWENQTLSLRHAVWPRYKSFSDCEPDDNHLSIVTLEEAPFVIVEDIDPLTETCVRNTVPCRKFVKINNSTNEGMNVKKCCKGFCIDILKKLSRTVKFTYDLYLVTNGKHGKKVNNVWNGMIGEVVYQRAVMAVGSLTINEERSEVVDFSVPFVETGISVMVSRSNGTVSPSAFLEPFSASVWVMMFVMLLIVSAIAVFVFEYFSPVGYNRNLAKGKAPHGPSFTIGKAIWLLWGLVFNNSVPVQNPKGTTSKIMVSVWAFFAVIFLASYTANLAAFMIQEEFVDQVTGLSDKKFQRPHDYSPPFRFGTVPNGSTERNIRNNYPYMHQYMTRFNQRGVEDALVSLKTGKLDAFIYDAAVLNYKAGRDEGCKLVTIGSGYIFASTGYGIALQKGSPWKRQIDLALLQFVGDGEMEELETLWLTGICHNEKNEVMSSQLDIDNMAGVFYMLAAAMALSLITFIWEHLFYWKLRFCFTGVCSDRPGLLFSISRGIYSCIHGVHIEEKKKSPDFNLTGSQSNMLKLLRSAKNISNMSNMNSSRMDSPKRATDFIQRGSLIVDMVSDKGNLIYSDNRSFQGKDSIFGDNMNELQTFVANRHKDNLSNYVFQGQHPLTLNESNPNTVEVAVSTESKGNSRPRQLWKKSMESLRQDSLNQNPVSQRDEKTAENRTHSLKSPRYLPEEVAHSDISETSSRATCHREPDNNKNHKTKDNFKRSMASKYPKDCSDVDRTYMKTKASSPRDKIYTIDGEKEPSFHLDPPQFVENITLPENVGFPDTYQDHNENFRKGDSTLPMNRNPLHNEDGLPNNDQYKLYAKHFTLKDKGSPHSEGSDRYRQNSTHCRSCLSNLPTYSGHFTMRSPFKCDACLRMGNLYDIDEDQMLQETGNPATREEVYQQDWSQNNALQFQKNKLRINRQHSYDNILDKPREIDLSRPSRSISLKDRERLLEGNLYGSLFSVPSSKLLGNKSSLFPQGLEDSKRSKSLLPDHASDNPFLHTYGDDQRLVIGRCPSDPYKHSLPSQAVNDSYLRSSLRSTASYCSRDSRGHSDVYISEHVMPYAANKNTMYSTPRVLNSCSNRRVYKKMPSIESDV
T3 sequence (Q00959 23-1464 E516C/L780C, other chains not shown): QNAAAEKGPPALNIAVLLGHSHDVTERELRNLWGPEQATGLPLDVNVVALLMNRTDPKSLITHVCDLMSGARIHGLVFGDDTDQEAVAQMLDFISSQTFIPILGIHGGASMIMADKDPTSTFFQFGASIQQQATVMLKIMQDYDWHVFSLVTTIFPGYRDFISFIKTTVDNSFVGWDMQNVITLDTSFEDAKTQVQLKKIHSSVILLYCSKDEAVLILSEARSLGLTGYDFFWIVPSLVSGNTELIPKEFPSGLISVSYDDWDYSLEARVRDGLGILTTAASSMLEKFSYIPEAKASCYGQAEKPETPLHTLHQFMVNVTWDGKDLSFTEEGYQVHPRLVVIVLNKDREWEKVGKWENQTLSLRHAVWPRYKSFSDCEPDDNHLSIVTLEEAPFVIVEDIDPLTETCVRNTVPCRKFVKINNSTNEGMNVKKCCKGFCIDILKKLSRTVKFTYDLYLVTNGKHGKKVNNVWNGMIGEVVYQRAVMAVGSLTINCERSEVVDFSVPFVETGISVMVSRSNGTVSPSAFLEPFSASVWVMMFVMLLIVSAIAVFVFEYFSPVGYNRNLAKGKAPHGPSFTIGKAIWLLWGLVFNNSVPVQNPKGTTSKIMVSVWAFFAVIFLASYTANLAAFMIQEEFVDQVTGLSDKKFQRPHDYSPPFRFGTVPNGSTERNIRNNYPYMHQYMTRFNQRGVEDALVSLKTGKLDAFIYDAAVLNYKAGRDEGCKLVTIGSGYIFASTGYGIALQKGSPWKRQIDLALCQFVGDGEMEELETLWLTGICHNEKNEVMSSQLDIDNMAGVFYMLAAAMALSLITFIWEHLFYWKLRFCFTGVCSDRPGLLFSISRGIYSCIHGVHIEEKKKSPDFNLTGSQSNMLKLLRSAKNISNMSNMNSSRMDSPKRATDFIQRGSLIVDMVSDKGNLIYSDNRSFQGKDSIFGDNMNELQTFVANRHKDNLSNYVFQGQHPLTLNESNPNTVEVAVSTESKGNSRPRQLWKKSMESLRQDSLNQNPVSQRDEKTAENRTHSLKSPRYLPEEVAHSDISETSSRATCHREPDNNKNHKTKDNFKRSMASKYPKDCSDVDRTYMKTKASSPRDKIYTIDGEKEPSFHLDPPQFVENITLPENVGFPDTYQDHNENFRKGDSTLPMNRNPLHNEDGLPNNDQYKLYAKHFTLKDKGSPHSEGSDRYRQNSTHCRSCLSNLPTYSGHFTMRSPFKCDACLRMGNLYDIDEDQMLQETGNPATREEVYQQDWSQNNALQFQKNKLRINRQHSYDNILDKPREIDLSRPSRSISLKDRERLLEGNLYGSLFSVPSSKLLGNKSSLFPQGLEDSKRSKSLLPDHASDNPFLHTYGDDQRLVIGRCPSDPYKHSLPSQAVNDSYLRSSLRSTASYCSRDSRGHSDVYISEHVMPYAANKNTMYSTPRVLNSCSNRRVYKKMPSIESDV
T6 sequence (Q01097 27-1482 E517C/L781C, other chains not shown): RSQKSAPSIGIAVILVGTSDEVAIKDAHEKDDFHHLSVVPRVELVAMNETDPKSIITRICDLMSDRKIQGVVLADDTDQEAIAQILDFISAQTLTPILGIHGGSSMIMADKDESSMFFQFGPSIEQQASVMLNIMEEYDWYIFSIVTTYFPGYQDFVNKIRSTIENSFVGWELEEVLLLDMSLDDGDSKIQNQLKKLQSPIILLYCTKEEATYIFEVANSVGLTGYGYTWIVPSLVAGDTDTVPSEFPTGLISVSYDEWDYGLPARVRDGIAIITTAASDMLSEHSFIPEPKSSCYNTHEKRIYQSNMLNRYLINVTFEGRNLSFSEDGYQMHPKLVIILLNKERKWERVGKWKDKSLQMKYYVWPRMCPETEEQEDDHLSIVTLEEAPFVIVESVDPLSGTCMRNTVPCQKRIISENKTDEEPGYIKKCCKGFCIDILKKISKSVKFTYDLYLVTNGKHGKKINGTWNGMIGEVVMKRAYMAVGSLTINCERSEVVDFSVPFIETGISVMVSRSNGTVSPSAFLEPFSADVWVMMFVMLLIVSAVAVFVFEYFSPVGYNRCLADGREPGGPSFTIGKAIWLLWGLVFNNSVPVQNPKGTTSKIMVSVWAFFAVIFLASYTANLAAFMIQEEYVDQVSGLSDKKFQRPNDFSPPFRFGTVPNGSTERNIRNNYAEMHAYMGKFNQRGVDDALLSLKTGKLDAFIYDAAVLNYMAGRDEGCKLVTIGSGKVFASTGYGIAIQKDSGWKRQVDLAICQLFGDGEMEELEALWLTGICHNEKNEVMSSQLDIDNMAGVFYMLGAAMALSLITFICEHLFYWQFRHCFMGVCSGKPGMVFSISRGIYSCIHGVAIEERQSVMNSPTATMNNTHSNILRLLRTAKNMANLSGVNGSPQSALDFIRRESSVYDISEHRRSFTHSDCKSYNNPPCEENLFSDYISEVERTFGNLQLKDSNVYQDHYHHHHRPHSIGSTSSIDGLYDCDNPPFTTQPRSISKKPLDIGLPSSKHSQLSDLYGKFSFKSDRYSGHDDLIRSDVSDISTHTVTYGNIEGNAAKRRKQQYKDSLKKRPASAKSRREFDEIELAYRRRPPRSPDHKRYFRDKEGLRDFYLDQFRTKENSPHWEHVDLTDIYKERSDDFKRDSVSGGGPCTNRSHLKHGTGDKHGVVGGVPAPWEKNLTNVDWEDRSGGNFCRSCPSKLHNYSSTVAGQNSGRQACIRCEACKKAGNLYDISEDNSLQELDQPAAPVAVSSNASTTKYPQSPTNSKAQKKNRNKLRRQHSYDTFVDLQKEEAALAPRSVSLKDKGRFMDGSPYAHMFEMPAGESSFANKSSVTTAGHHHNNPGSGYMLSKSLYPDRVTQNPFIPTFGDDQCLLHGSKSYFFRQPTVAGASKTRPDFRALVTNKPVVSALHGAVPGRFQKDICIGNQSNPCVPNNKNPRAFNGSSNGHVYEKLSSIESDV

[Zn+2] [zinc]
IC50 ([1]; after UV): 7.69 ± 0.17 nM | IC50 ([1]; before UV): 7.43 ± 1.1 nM | Izn/Io 1 nM ([2]; +UV): 0.94 ± 0.01 | Izn/Io 1 nM ([2]; -UV): 0.91 ± 0.02 | Izn/Io 10 nM ([2]; +UV): 0.70 ± 0.02 | Izn/Io 10 nM ([2]; -UV): 0.60 ± 0.01 | Izn/Io 1000 nM ([2]; +UV): 0.48 ± 0.04 | Izn/Io 1000 nM ([2]; -UV): 0.30 ± 0.03 | Zn2+ Hill slope (nH) ([2]; after UV): 1.05 ± 0.07 | Zn2+ maximal inhibition ([2]; after UV): 0.52 ± 0.04 | Zn2+ Hill slope (nH) ([2]; before UV): 0.99 ± 0.09 | Zn2+ maximal inhibition ([2]; before UV): 0.70 ± 0.03 | Zn2+ Hill slope (nH) [3]: 0.40 ± 0.11 | Zn2+ maximal inhibition [3]: 0.37 ± 0.04 | Izn/Io 1 nM ([3]; 1 nM zinc): 0.86 ± 0.01 | Izn/Io 5 nM ([3]; 5 nM zinc): 0.81 ± 0.02 | Izn/Io 50 nM ([3]; 50 nM zinc): 0.72 ± 0.03 | Izn/Io 500 nM ([3]; 500 nM zinc): 0.66 ± 0.04 | Izn/Io 1000 nM ([3]; 1000 nM zinc): 0.68 ± 0.01 | IC50 ([3]; read-out: Zn2+ IC50): 3.44 ± 2.03 nM | IC50 [4]: 720 ± 50 nM | Zn2+ Hill slope (nH) [5]: 1.01 ± 0.01 | Izn/Io 0.1 μM ([5]; 0.1 μM zinc): 0.95 ± 0.07 | Izn/Io 1 μM ([5]; 1 μM zinc): 0.72 ± 0.08 | Izn/Io 10 μM ([5]; 10 μM zinc): 0.22 ± 0.07 | IC50 ([5]; read-out: Zn2+ IC50): 3060 ± 40 nM | Zn2+ Hill slope (nH) [6]: 0.88 ± 0.05 | Izn/Io 0.1 μM ([6]; 0.1 μM zinc): 0.78 ± 0.07 | Izn/Io 0.3 μM ([6]; 0.3 μM zinc): 0.60 ± 0.03 | Izn/Io 1 μM ([6]; 1 μM zinc): 0.40 ± 0.03 | Izn/Io 3 μM ([6]; 3 μM zinc): 0.23 ± 0.03 | Izn/Io 10 μM ([6]; 10 μM zinc): 0.10 ± 0.03
